The values that follow come from patent US11560373B2, “Compounds and their use as PDE4 activators” (Mironid Limited, priority 2018, dated 2023).

T1 sequence (Q08499 1-745 isoform Q08499-6): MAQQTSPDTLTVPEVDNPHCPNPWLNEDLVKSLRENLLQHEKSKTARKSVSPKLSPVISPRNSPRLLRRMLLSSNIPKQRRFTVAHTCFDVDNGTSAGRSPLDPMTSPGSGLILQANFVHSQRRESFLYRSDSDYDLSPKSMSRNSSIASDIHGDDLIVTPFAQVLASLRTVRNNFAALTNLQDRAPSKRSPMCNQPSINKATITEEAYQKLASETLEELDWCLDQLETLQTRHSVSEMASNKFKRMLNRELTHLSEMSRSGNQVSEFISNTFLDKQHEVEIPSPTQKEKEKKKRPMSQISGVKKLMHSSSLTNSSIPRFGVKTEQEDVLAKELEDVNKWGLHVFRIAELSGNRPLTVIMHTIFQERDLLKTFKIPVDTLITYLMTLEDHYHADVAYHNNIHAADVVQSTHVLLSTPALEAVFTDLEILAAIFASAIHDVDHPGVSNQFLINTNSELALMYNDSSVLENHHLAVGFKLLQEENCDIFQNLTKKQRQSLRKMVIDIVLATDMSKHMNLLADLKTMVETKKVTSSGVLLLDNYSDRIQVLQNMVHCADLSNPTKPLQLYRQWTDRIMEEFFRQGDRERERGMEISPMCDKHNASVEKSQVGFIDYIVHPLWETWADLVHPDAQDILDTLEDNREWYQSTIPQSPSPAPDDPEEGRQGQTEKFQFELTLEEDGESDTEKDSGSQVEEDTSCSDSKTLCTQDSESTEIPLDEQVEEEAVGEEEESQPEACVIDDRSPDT

One experiment addresses T1, PDE4D5 (Homo sapiens, UniProt Q08499).
T1 construct: stably expressed the full-length human PDE4D5, PDE4B1 and PDE4A4 long isoforms; made in house
Kind of experiment: PDE assay, [3H]cAMP hydrolysis by HEK-PDE4D5 cell lysate cytosol fraction. The experiment is classed as biochemical. The settings on record: 30 μM; mean % increase in counts over basal activity. On the procedure:
(§1) HEK 293 cells were transfected with pDEST™ PDE4 expression vectors using Lipofectamine LTX/Plus reagent (Invitrogen) as outlined by the manufacturer and clonal isolates expanded to obtain cell lines that stably expressed the full-length human PDE4D5, PDE4B1 and PDE4A4 long isoforms and the full length human PDE4B2 short isoform. These were called the HEK-PDE4D5, HEK-PDE4B1, HEK-PDE4A4 and HEK-PDE4B2 cell lines, respectively.
(§2) HEK-PDE4D5 cells were seeded out in 100 mm plates and incubated at 37° C. in an atmosphere of 5% CO2, 95% air. Cell lysates were prepared using KHEM buffer [50 mM KCl, 10 mM EGTA, 50 mM HEPES (pH 7.2), 1.92 mM MgCl2].
(§3) To prepare the cell lysates, the 100 mm plates containing the cells were placed on ice and washed with ice-cold PBS (phosphate buffered saline, pH 7.4). KHEM buffer (500 μl) was added to the cells. Cells were then scraped off the plate and triturated using a needle (BD Microlance™ 0.8, 40 mm). The lysed cells were then centrifuged at 2000 rpm for 10 minutes to remove cell debris and the supernatant (cell lysate containing recombinant PDE4D5) was transferred to a fresh tube and kept on ice.
(§4) The cell lysate containing recombinant PDE4D5 was transferred into a centrifuge tube and placed into an ultracentrifuge (BECKMAN COULTER) and spun at high speed (100,000 g) for 30 minutes at 4° C. The cytosol fraction was then collected and its protein amount determined using a BCA protein assay.
(§5) PDE assays were performed in thin walled V-bottomed 96-well plates. The assays were performed at a final concentration of 10 mM Tris/5 mM MgCl2 plus PDE4D5 cell lysate cytosol fraction, containing over-expressed PDE4D5, with and without test compound. The lysate/compound mix were incubated together for 15 min at room temperature on an orbital shaker prior to addition of [^3H] cAMP (final concentration 1 μM [^3H] cAMP; Perkin Elmer) to a final volume of 50 μl per reaction. The reactions were then incubated for 10 minutes at 30° C., terminated by heating for 2 min at 95° C. and allowed to cool. Snake venom (12.5 μl of 1 mg/ml; Crotalus atrox, Sigma) was then added and the plates were agitated and incubated for a further 15 minutes at 30° C. Dowex ion exchange resin (Sigma, chloride form, 200-400 mesh; 200 μl; prepared as a 1:1 Dowex: water stock, thoroughly re-suspended and diluted 2:1 with ethanol) was then added to each well and the plates incubated for 15 min at room temperature on an orbital shaker ensuring sufficient agitation for resin suspension (550 RPM). The reaction mixture was then transferred to a 96 well filter plate (Millipore; […] pore size) and filtered into a receiving 96-well plate to remove the dowex suspension. 30 μL of the filtered solution was then transferred to the wells of an Opti-plate (Perkin Elmer) 96 well assay plate and 120 μl of Microscint 40 scintillation fluid was added. The plate was then placed on an orbital shaker for 10 min at high speed (900 RPM) to mix the sample with scintillation fluid prior to quantitation using a plate based scintillation counter (Top-Count).
(§6) The % increase in counts in the presence of test compound at a particular concentration indicates the % increase in enzyme activity at that concentration.
In the case of `CCn1nc(-c2ccc(Cl)c(OC(C)C)c2)nc1CC(=O)N[C@H]1CCOc2ccc(Cl)cc21` [Example 40, N-[(4S)-6-Chloro-3,4-dihydro-2H-1-benzopyran-4-yl]-2-[3-(4-chloro-3-isopropyloxyphenyl)-1-ethyl-1H-1,2,4-triazol-5-yl]acetamide], the activation at 30 µM amounted to 48.5%. In turn, `CCn1nc(-c2ccc(Cl)c(OCCOC)c2)nc1CC(=O)NCc1cc(Cl)cc(Cl)c1` [Example 33, 2-{3-[4-Chloro-3-(2-methoxyethoxy)phenyl]-1-ethyl-1H-1,2,4-triazol-5-yl}-N-[(3,5-dichlorophenyl)methyl]acetamide] gave an activation at 30 µM of 82.3%. The compound `CCOC(=O)CCCn1nc(-c2ccc(Cl)c(F)c2)nc1CC(=O)NCc1cc(Cl)cc(Cl)c1` [Example 56, Ethyl 4-[3-(4-chloro-3-fluorophenyl)-5-({[(3,5-dichlorophenyl)methyl]carbamoyl}methyl)-1H-1,2,4-triazol-1-yl]butanoate] came in with an activation at 30 µM of 155%. The same measure, in the same setting: in the case of `CCn1nc(-c2ccc(Cl)c(OC(C)C)c2)nc1CC(=O)N[C@H]1CCc2ncccc21` [Example 42, 2-[3(4-Chloro-3-isopropyloxyphenyl)-1-ethyl-1H-1,2,4-triazol-5-yl]-N-[(5S)-5H,6H,7H-cyclopenta[b]pyridin-5-yl]acetamide] it was 40%. As for `CCn1nc(-c2ccc(Cl)c(OC(C)C)c2)nc1CC(=O)NCc1cc(C)cc(C)n1` [Example 82, 2-[3-(4-Chloro-3-isopropyloxyphenyl)-1-ethyl-1H-1,2,4-triazol-5-yl]-N-[(4,6-dimethylpyridin-2-yl)methyl]acetamide], the activation at 30 µM is 34.3%.

In the case of `O=C(Cc1nc(-c2ccc(Cl)c(F)c2)nn1CC1CC1)N[C@H]1CCOc2ccc(Cl)cc21` [Example 78, N-[(4S)-6-Chloro-3,4-dihydro-2H-1-benzopyran-4-yl]-2-[3-(4-chloro-3-fluorophenyl)-1-(cyclopropylmethyl)-1H-1,2,4-triazol-5-yl]acetamide], the activation at 30 µM amounted to 79.1%. On to `O=C(O)CCn1nc(-c2ccc(Cl)c(F)c2)nc1CC(=O)NCc1cc(Cl)cc(Cl)c1` [Example 58, 3-[3-(4-Chloro-3-fluorophenyl)-5-({[(3,5-dichlorophenyl)methyl]carbamoyl}methyl)-1H-1,2,4-triazol-1-yl]propanoic acid], for which the activation at 30 µM was determined as 128%. With `Cn1nc(-c2ccc(Cl)c(F)c2)nc1CC(=O)NCc1ccc2[nH]ncc2c1` [Example 21, 2-[3-(4-Chloro-3-fluorophenyl)-1-methyl-1H-1,2,4-triazol-5-yl]-N-[(1H-indazol-5-yl)methyl]acetamide], the activation at 30 µM was found to be 60.8%.

`CC(C)Oc1cc(-c2nc(CC(=O)N[C@H]3CCc4ccccc43)n(C)n2)ccc1Cl` [Example 44] came in with an activation at 30 µM of 45%. Turning to `O=C(Cc1nc(-c2ccc(Cl)c(F)c2)nn1CC1CC1)N[C@H]1CCc2ccccc21` [Example 72, 2-[3-(4-Chloro-3-fluorophenyl)-1-(cyclopropylmethyl)-1H-1,2,4-triazol-5-yl]-N-[(1S)-2,3-dihydro-1H-inden-1-yl]acetamide], the activation at 30 µM was determined as 92%. The same measure, in the same setting: in the case of `CCn1nc(-c2ccc(Cl)c(OC(C)C)c2)nc1CC(=O)NCc1cc(C)nc(C)c1` [Example 35, 2-[3-(4-Chloro-3-isopropyloxyphenyl)-1-ethyl-1H-1,2,4-triazol-5-yl]-N-[(2,6-dimethylpyridin-4-yl)methyl]acetamide] it was 28.5%. `Cc1cc(CNC(=O)Cc2nc(-c3ccc(Cl)c(F)c3)nn2CC2CC2)cc(C)n1` [Example 26, 2-[3-(4-Chloro-3-fluorophenyl)-1-(cyclopropylmethyl)-1H-1,2,4-triazol-5-yl]-N-[(2,6-dimethylpyridin-4-yl)methyl]acetamide]: the activation at 30 µM amounted to 87.5%. In turn, `CCOc1cccc(CNC(=O)Cc2nc(-c3ccc(Cl)c(F)c3)nn2CC)c1` [Example 14, 2-[3-(4-Chloro-3-fluorophenyl)-1-ethyl-1H-1,2,4-triazol-5-yl]-N-[(3-ethoxyphenyl)methyl]acetamide] came in with an activation at 30 µM of 142%. As to `CCn1nc(-c2ccc(Cl)c(F)c2)nc1CC(=O)N[C@H]1CCOc2ccccc21` [Example 74, 2-[3-(4-Chloro-3-fluorophenyl)-1-ethyl-1H-1,2,4-triazol-5-yl]-N-[(4S)-3,4-dihydro-2H-1-benzopyran-4-yl]acetamide], the activation at 30 µM turned out to be 55.3%.

Compound `CCn1nc(-c2ccc(Cl)c(F)c2)nc1CC(=O)NCc1ccnc(C(F)(F)F)c1` [Example 83, 2-[3-(4-Chloro-3-fluorophenyl)-1-ethyl-1H-1,2,4-triazol-5-yl]-N-{[2-(trifluoromethyl)pyridin-4-yl]methyl}acetamide] came in with an activation at 30 µM of 89.6%. Compound `CCn1nc(-c2ccc(Cl)c(F)c2)nc1CC(=O)NC1(c2cc(C)nc(C)c2)CC1` [Example 86, 2-[3-(4-Chloro-3-fluorophenyl)-1-ethyl-1H-1,2,4-triazol-5-yl]-N-[1-(2,6-dimethylpyridin-4-yl)cyclopropyl]acetamide] had an activation at 30 µM of 37.3%. Compound `CCn1nc(-c2ccc(Cl)c(F)c2)nc1CC(=O)Nc1cc(C)on1` [Example 6, 2-[3-(4-Chloro-3-fluorophenyl)-1-ethyl-1H-1,2,4-triazol-5-yl]-N-(5-methyl-1,2-oxazol-3-yl)acetamide] gave an activation at 30 µM of 38.5%. For `O=C(Cc1nc(-c2ccc(Cl)c(F)c2)nn1CC1CC1)NCc1ccc2[nH]ncc2c1` [Example 27, 2-[3-(4-Chloro-3-fluorophenyl)-1-(cyclopropylmethyl)-1H-1,2,4-triazol-5-yl]-N-[(1H-indazol-5-yl)methyl]acetamide], the activation at 30 µM was found to be 106%. Still for that read-out and setting: in the case of `CCn1nc(-c2ccc(Cl)c(OC(C)C)c2)nc1CC(=O)NCc1ccc2[nH]ncc2c1` [Example 38, 2-[3-(4-Chloro-3-isopropyloxyphenyl)-1-ethyl-1H-1,2,4-triazol-5-yl]-N-[(1H-indazol-5-yl)methyl]acetamide] it was 81.6%.

`CCOc1cc(-c2nc(CC(=O)NCc3cc(Cl)cc(Cl)c3)n(CC)n2)ccc1Cl` [Example 32, 2-[3-(4-Chloro-3-ethoxyphenyl)-1-ethyl-1H-1,2,4-triazol-5-yl]-N-[(3,5-dichlorophenyl)methyl]acetamide] displayed an activation at 30 µM of 42.8%. In turn, `CCc1cc(CNC(=O)Cc2nc(-c3ccc(Cl)c(F)c3)nn2CC)cc(CC)n1` [Example 80, 2-[3-(4-Chloro-3-fluorophenyl)-1-ethyl-1H-1,2,4-triazol-5-yl]-N-[(2,6-diethylpyridin-4-yl)methyl]acetamide] displayed an activation at 30 µM of 58.9%. Still for that read-out and setting: for `CCn1nc(-c2ccc(Cl)c(OC(C)C)c2)nc1CC(=O)N[C@H]1CCc2ccccc21` [Example 36, 2-[3-(4-Chloro-3-isopropyloxyphenyl)-1-ethyl-1H-1,2,4-triazol-5-yl]-N-[(1S)-2,3-dihydro-1H-inden-1-yl]acetamide] the value was 33%. On the same count and under the same terms, for `CCn1nc(-c2ccc(Cl)c(F)c2)nc1CC(=O)NC1Cc2ccccc2C1` [Example 66, 2-[3-(4-Chloro-3-fluorophenyl)-1-ethyl-1H-1,2,4-triazol-5-yl]-N-(2,3-dihydro-1H-inden-2-yl)acetamide] the value was 92.1%.

In turn, `COC(=O)Cn1nc(-c2ccc(Cl)c(F)c2)nc1CC(=O)NCc1cc(Cl)cc(Cl)c1` [Example 54, Methyl 2-[3-(4-chloro-3-fluorophenyl)-5-({[(3,5-dichlorophenyl)methyl]carbamoyl}methyl)-1H-1,2,4-triazol-1-yl]acetate] had an activation at 30 µM of 97.2%. The same measure, in the same setting: in the case of `CCn1nc(-c2ccc(Cl)c(F)c2)nc1CC(=O)NCc1cc(OC)cc(OC)c1` [Example 15, 2-[3-(4-Chloro-3-fluorophenyl)-1-ethyl-1H-1,2,4-triazol-5-yl]-N-[(3,5-dimethoxyphenyl)methyl]acetamide] it was 61.5%.

The target of the next experiment is T2, PDE4B2 (Homo sapiens, UniProt Q07343).
T2 construct: the full length human PDE4B2 short isoform; made in house
T2 sequence (Q07343 1-564 isoform Q07343-2): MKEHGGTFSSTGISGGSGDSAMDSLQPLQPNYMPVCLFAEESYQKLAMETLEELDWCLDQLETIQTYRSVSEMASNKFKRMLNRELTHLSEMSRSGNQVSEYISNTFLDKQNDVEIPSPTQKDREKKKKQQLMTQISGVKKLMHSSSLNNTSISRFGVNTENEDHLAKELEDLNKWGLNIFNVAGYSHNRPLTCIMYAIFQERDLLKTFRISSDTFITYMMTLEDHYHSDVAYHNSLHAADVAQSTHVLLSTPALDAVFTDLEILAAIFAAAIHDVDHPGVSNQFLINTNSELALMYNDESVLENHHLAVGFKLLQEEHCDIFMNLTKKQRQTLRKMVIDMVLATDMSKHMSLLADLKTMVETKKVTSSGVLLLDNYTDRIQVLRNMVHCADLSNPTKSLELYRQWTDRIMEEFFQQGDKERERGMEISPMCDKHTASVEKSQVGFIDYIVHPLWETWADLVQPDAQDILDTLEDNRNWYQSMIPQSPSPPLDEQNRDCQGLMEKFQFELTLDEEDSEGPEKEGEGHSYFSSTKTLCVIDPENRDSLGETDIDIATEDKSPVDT
Kind of experiment: PDE assay, [3H]cAMP hydrolysis by HEK-PDE4B2 cell lysate cytosol fraction (short form). Conditions: mean % increase in counts over basal activity. The class given is biochemical. On the procedure:
as §1, §2, §3, §4, §5, §6
In the case of `CCn1nc(-c2ccc(Cl)c(OC(C)C)c2)nc1CC(=O)N[C@H]1CCOc2ccc(Cl)cc21` [Example 40, N-[(4S)-6-Chloro-3,4-dihydro-2H-1-benzopyran-4-yl]-2-[3-(4-chloro-3-isopropyloxyphenyl)-1-ethyl-1H-1,2,4-triazol-5-yl]acetamide], the “% increase in PDE4B2 activity at 30 μM” value is recorded as 1.6%. On the same count and under the same terms, in the case of `CCn1nc(-c2ccc(Cl)c(OCCOC)c2)nc1CC(=O)NCc1cc(Cl)cc(Cl)c1` [Example 33, 2-{3-[4-Chloro-3-(2-methoxyethoxy)phenyl]-1-ethyl-1H-1,2,4-triazol-5-yl}-N-[(3,5-dichlorophenyl)methyl]acetamide] it was −9.4%.
